Values of other authors in patent US5668009A, “Methods for treating cotton-containing fabrics with CBH I enriched cellulase” (Genencor International, Inc., priority 1995, dated 1997).

Key:
[1] = biological target: exo-cellobiohydrolase (CBH) type components, as characterized for CBH I and CBH II from Trichoderma reesei; details: competitive inhibition; general characterisation of CBH components; read-out: Ki (cellobiose), competitive inhibition
[2] = biological target: β-Glucosidase (BG) components of fungal cellulase; details: competitive inhibition; general characterisation of BG components; read-out: Ki (glucose), competitive inhibition

| Ki [1] [µM] | Structure (SMILES) | Ki [2] [µM] |
| --- | --- | --- |
| ~1000 | OC[C@H]1O[C@@H](O[C@H]2[C@H](O)[C@@H](O)C(O)O[C@@H]2CO)[C@H](O)[C@@H](O)[C@@H]1O (some centres unmarked) [cellobiose] | – |
| – | OC[C@H]1OC(O)[C@H](O)[C@@H](O)[C@@H]1O (some centres unmarked) [glucose] | ~1000 |
